# Experimental data as given in BindingDB's records for doi:10.1016/s0960-894x(99)00197-3 (The R. W. Johnson Pharmaceutical Research Institute, 1999).
# Where a SMILES comes first, the peptide text is derived from it. [ ]: non-standard residue; d: D form. The star is where a group is joined. Cha = N[C@@H](CC1CCCCC1)C(=O)O; Nicotinoyl = O=C(c1cccnc1)*; 3Abz = Nc1cccc(C(=O)O)c1
# Test: Inhibition of [3H]S-(p-F-Phe)-Har-L-Har-KY-NH2 binding to Thrombin receptor 1 (PAR-1) on membranes from CHRF cells
row,EC50 [µM],Compound
1,8,N=C(N)NCCC[C@H](NC(=O)[C@H](CC1CCCCC1)NC(=O)c1cccnc1N)C(=O)N[C@@H](Cc1ccccc1)C(N)=O [2-Amino-N-{(S)-1-[(S)-1-((S)-1-carbamoyl-2-phenyl-ethylcarbamoyl)-4-guanidino-butylcarbamoyl]-2-cyclohexyl-ethyl}-nicotinamide]
2,2.9,N=C(N)NCCC[C@H](NC(=O)[C@H](CC1CCCCC1)NC(=O)c1cccc(N)c1)C(=O)N[C@@H](Cc1ccccc1)C(N)=O [3-Amino-N-{(S)-1-[(S)-1-((S)-1-carbamoyl-2-phenyl-ethylcarbamoyl)-4-guanidino-butylcarbamoyl]-2-cyclohexyl-ethyl}-benzamide] (H-[3Abz][Cha]RF-NH2)
3,14,"N=C(N)NCCC[C@H](NC(=O)[C@H](CC1CCCCC1)NC(=O)c1nnc(NC(=O)C=Cc2c[nH]c3ccccc23)[nH]1)C(=O)N[C@@H](Cc1ccccc1)C(N)=O [5-((E)-3-1H-Indol-3-yl-acryloylamino)-1H-[1,2,4]triazole-3-carboxylic acid {(S)-1-[(S)-1-((S)-1-carbamoyl-2-phenyl-ethylcarbamoyl)-4-guanidino-butylcarbamoyl]-2-cyclohexyl-ethyl}-amide]"
4,2.9,"N=C(N)NCCC[C@H](NC(=O)[C@H](CC1CCCCC1)NC(=O)c1nnc(NC(=O)C=Cc2cccs2)[nH]1)C(=O)N[C@@H](Cc1ccccc1)C(N)=O [5-((E)-3-Thiophen-2-yl-acryloylamino)-1H-[1,2,4]triazole-3-carboxylic acid {(S)-1-[(S)-1-((S)-1-carbamoyl-2-phenyl-ethylcarbamoyl)-4-guanidino-butylcarbamoyl]-2-cyclohexyl-ethyl}-amide]"
5,10.5,"N=C(N)NCCC[C@H](NC(=O)[C@H](CC1CCCCC1)NC(=O)c1nnc(N)[nH]1)C(=O)N[C@@H](Cc1cccs1)C(N)=O [5-Amino-1H-[1,2,4]triazole-3-carboxylic acid {(S)-1-[(S)-1-((S)-1-carbamoyl-2-thiophen-2-yl-ethylcarbamoyl)-4-guanidino-butylcarbamoyl]-2-cyclohexyl-ethyl}-amide]"
6,1.1,"N=C(N)NCCC[C@H](NC(=O)[C@H](CC1CCCCC1)NC(=O)c1nnc(NC(=O)C=Cc2ccccc2Cl)[nH]1)C(=O)N[C@@H](Cc1ccccc1)C(N)=O [5-[(E)-3-(2-Chloro-phenyl)-acryloylamino]-1H-[1,2,4]triazole-3-carboxylic acid {(S)-1-[(S)-1-((S)-1-carbamoyl-2-phenyl-ethylcarbamoyl)-4-guanidino-butylcarbamoyl]-2-cyclohexyl-ethyl}-amide]"
7,55,"N=C(N)NCCC[C@H](NC(=O)[C@H](CC1CCCCC1)NC(=O)c1nnc(NC(=O)C=Cc2ccc(Cl)cc2)[nH]1)C(=O)N[C@@H](Cc1ccccc1)C(N)=O [5-[(E)-3-(4-Chloro-phenyl)-acryloylamino]-1H-[1,2,4]triazole-3-carboxylic acid {(S)-1-[(S)-1-((S)-1-carbamoyl-2-phenyl-ethylcarbamoyl)-4-guanidino-butylcarbamoyl]-2-cyclohexyl-ethyl}-amide]"
8,5.6,"COc1ccc(C=CC(=O)Nc2nnc(C(=O)N[C@@H](CC3CCCCC3)C(=O)N[C@@H](CCCNC(=N)N)C(=O)N[C@@H](Cc3ccccc3)C(N)=O)[nH]2)cc1 [5-[(E)-3-(4-Methoxy-phenyl)-acryloylamino]-1H-[1,2,4]triazole-3-carboxylic acid {(S)-1-[(S)-1-((S)-1-carbamoyl-2-phenyl-ethylcarbamoyl)-4-guanidino-butylcarbamoyl]-2-cyclohexyl-ethyl}-amide]"
9,5,"N=C(N)NCCC[C@H](NC(=O)[C@H](CC1CCCCC1)NC(=O)c1nnc(NC(=O)C=Cc2ccc(C(F)(F)F)cc2)[nH]1)C(=O)N[C@@H](Cc1ccccc1)C(N)=O [5-[(E)-3-(4-Trifluoromethyl-phenyl)-acryloylamino]-1H-[1,2,4]triazole-3-carboxylic acid {(S)-1-[(S)-1-((S)-1-carbamoyl-2-phenyl-ethylcarbamoyl)-4-guanidino-butylcarbamoyl]-2-cyclohexyl-ethyl}-amide]"
10,1.2,N=C(N)NCCC[C@H](NC(=O)[C@H](CC1CCCCC1)NC(=O)c1ccc(N)nc1)C(=O)N[C@@H](Cc1ccccc1)C(N)=O [6-Amino-N-{(S)-1-[(S)-1-((S)-1-carbamoyl-2-phenyl-ethylcarbamoyl)-4-guanidino-butylcarbamoyl]-2-cyclohexyl-ethyl}-nicotinamide]
11,0.28,CC(C)C[C@H](NC(=O)[C@H](CC(C)C)NC(=O)[C@H](Cc1ccccc1)NC(=O)[C@@H](N)CO)C(=O)N[C@@H](CCCNC(=N)N)C(=O)N[C@@H](CC(N)=O)C(N)=O [(S)-2-[(S)-2-((S)-2-{(S)-2-[(S)-2-((S)-2-Amino-3-hydroxy-propionylamino)-3-phenyl-propionylamino]-4-methyl-pentanoylamino}-4-methyl-pentanoylamino)-5-guanidino-pentanoylamino]-succinamide]
12,2.6,N=C(N)NCCC[C@H](NC(=O)[C@H](CC1CCCCC1)NC(=O)C=Cc1cccnc1)C(=O)N[C@@H](Cc1ccccc1)C(N)=O [(S)-2-[(S)-3-Cyclohexyl-2-((E)-3-pyridin-3-yl-acryloylamino)-propionylamino]-5-guanidino-pentanoic acid ((S)-1-carbamoyl-2-phenyl-ethyl)-amide]
13,8.3,N=C(N)NCCC[C@H](NC(=O)[C@H](CC1CCCCC1)NC(=O)c1cc2ccccc2s1)C(=O)N[C@@H](Cc1ccccc1)C(N)=O [Benzo[b]thiophene-2-carboxylic acid {(S)-1-[(S)-1-((S)-1-carbamoyl-2-phenyl-ethylcarbamoyl)-4-guanidino-butylcarbamoyl]-2-cyclohexyl-ethyl}-amide]
14,12.5,N=C(N)NCCC[C@H](NC(=O)[C@H](CC1CCCCC1)NC(=O)c1cc2ccccc2o1)C(=O)N[C@@H](Cc1ccccc1)C(N)=O [Benzofuran-2-carboxylic acid {(S)-1-[(S)-1-((S)-1-carbamoyl-2-phenyl-ethylcarbamoyl)-4-guanidino-butylcarbamoyl]-2-cyclohexyl-ethyl}-amide]
15,1.2,N=C(N)NCCC[C@H](NC(=O)[C@H](CC1CCCCC1)NC(=O)c1ccc2c(c1)-c1ccccc1-2)C(=O)N[C@@H](Cc1ccccc1)C(N)=O [Biphenylene-2-carboxylic acid {(S)-1-[(S)-1-((S)-1-carbamoyl-2-phenyl-ethylcarbamoyl)-4-guanidino-butylcarbamoyl]-2-cyclohexyl-ethyl}-amide]
16,4.6,N=C(N)NCCC[C@H](NC(=O)[C@H](CC1CCCCC1)NC(=O)c1ccc(Cl)nc1)C(=O)N[C@@H](Cc1ccccc1)C(N)=O [N-{(S)-1-[(S)-1-((S)-1-Carbamoyl-2-phenyl-ethylcarbamoyl)-4-guanidino-butylcarbamoyl]-2-cyclohexyl-ethyl}-6-chloro-nicotinamide]
17,2,N=C(N)NCCC[C@H](NC(=O)[C@H](CC1CCCCC1)NC(=O)c1cccnc1)C(=O)N[C@@H](Cc1ccccc1)C(N)=O [N-{(S)-1-[(S)-1-((S)-1-Carbamoyl-2-phenyl-ethylcarbamoyl)-4-guanidino-butylcarbamoyl]-2-cyclohexyl-ethyl}-nicotinamide] (Nicotinoyl-[Cha]-Arg-Phe-NH2)
18,14,N=C(N)NCCC[C@H](NC(=O)[C@H](CC1CCCCC1)NC(=O)c1ccccn1)C(=O)N[C@@H](Cc1ccccc1)C(N)=O [Pyridine-2-carboxylic acid {(S)-1-[(S)-1-((S)-1-carbamoyl-2-phenyl-ethylcarbamoyl)-4-guanidino-butylcarbamoyl]-2-cyclohexyl-ethyl}-amide]
19,1,N=C(N)NCCC[C@H](NC(=O)[C@H](CC1CCCCC1)NC(=O)c1cnc2ccccc2n1)C(=O)N[C@@H](Cc1ccccc1)C(N)=O [Quinoxaline-2-carboxylic acid {(S)-1-[(S)-1-((S)-1-carbamoyl-2-phenyl-ethylcarbamoyl)-4-guanidino-butylcarbamoyl]-2-cyclohexyl-ethyl}-amide]
20,1.3,"N=C(N)NCCC[C@H](NC(=O)[C@H](CC1CCCCC1)NC(=O)c1csnn1)C(=O)N[C@@H](Cc1ccccc1)C(N)=O [[1,2,3]Thiadiazole-4-carboxylic acid {(S)-1-[(S)-1-((S)-1-carbamoyl-2-phenyl-ethylcarbamoyl)-4-guanidino-butylcarbamoyl]-2-cyclohexyl-ethyl}-amide]"

# Test: Activation of human platelet aggregation (gel-filtered platelets) induced by alpha thrombin
row,EC50 [µM],Compound
1,4.9,N=C(N)NCCC[C@H](NC(=O)[C@H](Cc1ccccc1)NC(=O)c1ccc2nc[nH]c2c1)C(=O)N[C@@H](Cc1ccccc1)C(N)=O [1H-Benzoimidazole-5-carboxylic acid {(S)-1-[(S)-1-((S)-1-carbamoyl-2-phenyl-ethylcarbamoyl)-4-guanidino-butylcarbamoyl]-2-phenyl-ethyl}-amide]
2,4.2,N=C(N)NCCC[C@H](NC(=O)[C@H](CC1CCCCC1)NC(=O)c1nccnc1N)C(=O)N[C@@H](Cc1ccccc1)C(N)=O [3-Amino-pyrazine-2-carboxylic acid {(S)-1-[(S)-1-((S)-1-carbamoyl-2-phenyl-ethylcarbamoyl)-4-guanidino-butylcarbamoyl]-2-cyclohexyl-ethyl}-amide]
3,0.51,N=C(N)NCCC[C@H](NC(=O)[C@H](CC1CCCCC1)NC(=O)c1cc(=O)c2ccccc2o1)C(=O)N[C@@H](Cc1ccccc1)C(N)=O [4-Oxo-4H-chromene-2-carboxylic acid {(S)-1-[(S)-1-((S)-1-carbamoyl-2-phenyl-ethylcarbamoyl)-4-guanidino-butylcarbamoyl]-2-cyclohexyl-ethyl}-amide]
4,1,"N=C(N)NCCC[C@H](NC(=O)[C@H](CC1CCCCC1)NC(=O)c1nnc(NC(=O)C=Cc2cccc3ccccc23)[nH]1)C(=O)N[C@@H](Cc1ccccc1)C(N)=O [5-((E)-3-Naphthalen-1-yl-acryloylamino)-1H-[1,2,4]triazole-3-carboxylic acid {(S)-1-[(S)-1-((S)-1-carbamoyl-2-phenyl-ethylcarbamoyl)-4-guanidino-butylcarbamoyl]-2-cyclohexyl-ethyl}-amide]"
5,3.1,"N=C(N)NCCC[C@H](NC(=O)[C@H](CC1CCCCC1)NC(=O)c1nnc(N)[nH]1)C(=O)N[C@H](C(N)=O)c1ccccc1 [5-Amino-1H-[1,2,4]triazole-3-carboxylic acid ((S)-1-{(S)-1-[((S)-carbamoyl-phenyl-methyl)-carbamoyl]-4-guanidino-butylcarbamoyl}-2-cyclohexyl-ethyl)-amide]"
